Test results as given in US7427670B2, “Cytochrome P450 24 (CYP24) monoclonal antibody and methods and uses thereof” (Cytochroma Inc., priority 2003, dated 2008).

System: CYP24 protein in HEK cells
Experiment: CYP24 protein expression in HEK cells, Western blot with anti-CYP24 mAb and densitometric analysis
Type: cell-based, human
Settings: 10 nM
Method: • Human Epidermal Keratinocyte Cells (HEK) cells (CYP24 expressing cells) • Keratinocyte Growth Medium (KGM®; Cambrex) • HEK Cell Lysis Buffer (0.5 M Tris, pH 6.8, 10% SDS, glycerol, dH2O, protease inhibitor) • 1.7 ml eppendorf tubes • Isopropanol • Enhanced Chemiluminescense (ECL) Western Blotting Detection Reagants (Amersham Pharmacia) • 10 nM Calcitriol (Vitamin D) • 10 nM CTAX (Cytochroma Inc.) (“Vitamin D analog”) • 10 nM CTAY (Cytochroma Inc.) (“Vitamin D analog”) • 10 nM CTAZ (Cytochroma Inc.) (“Vitamin D analog”) • 6-well plates (i) HEK Cell Preparation Method:
125 thousand HEK cells per well were placed in 2.5 ml KGM® (2 plates) and incubated overnight @ 37° C. in 5% CO2. After 24 hours, old KGM® was replaced with fresh 2.5 ml KGM®. For 48 hour samples (Plate 1): 2.5 μl isopropanol was added to 1 well; 2.5 μl 10 μM calcitriol was added to 1 well; 2.5 μl 10 μM CTAX was added to 1 well; 2.5 μl 10 μM CTAY was added to 1 well; 2.5 μl […] was added to 1 well. […]
The effect of CYP24 protein expression in HEK cells treated with CYP24 inhibitors was investigated. […] Cell lysates were then analyzed for CYP24 protein by Western blot analysis using anti-CYP24 mAb as the primary antibody. Each sample was expressed as a relative amount of CYP24 protein compared to the control (control=1 unit).

Question: How did the “induction of CYP24 protein (relative to control = 1 unit)” value (24 hours) turn out when `C=C1/C(=C\C=C2/CCC[C@]3(C)[C@@H]([C@H](C)CCCC(C)(C)O)CC[C@@H]23)C[C@@H](O)C[C@@H]1O` [Calcitriol] was run?
Answer: weakly induces

Question: What about the “induction of CYP24 protein (relative to control = 1 unit)” value (48 hours) of the same compound?
Answer: weakly induces
